Each structure is given as a SMILES string.

One may read the EC50 as the concentration at which the effect is half-maximal. Lower therefore signals an effect from little substance.

Series [1] relates to 4T1 syngeneic orthotopic breast carcinoma. The series can be described thus: Confocal microscopy of 4T1 tumor slices after i.v. injection of dual-labeled liposomes. The format is in vivo, mice. To be noted: for extravasation and migration area in tumor: 24 h after i.v., 290 nm EPC/DSPE-PEG2000 liposomes with 0.2% DiD and Cy3-DSPE. How it is done:
Lipids at the following molar ratios: HSPC/Chol/DSPE-PEG2000 (57/38/5) or EPC/DSPE-PEG2000 (95:5) with addition of 0.2% ICL and/or 0.2% FPL were mixed and dried under a nitrogen stream. The dry lipid cake was resuspended in PBS for a total lipid concentration of 20 mM, then incubated at 60° C. for 30 minutes. The solution was then vortexed for 2 minutes and bath sonicated. Liposomes were extruded by a syringe extruder (Avestin, Ottawa, Canada) through Whatman Nucleopore Track-Etch Membranes (200 nm pore size, 15 times). HSPC-based liposomes were extruded at 60° C., EPC-based liposomes were extruded at room temperature. Size and zeta potential were measured at room temperature in the presence of 1% phosphate-buffered saline using Zetasizer Nano (Malvern, UK). Liposomes were stored at 4° C. at a final concentration of 10 mM (total lipid) for a maximum period of 8 weeks before use.
4T1 cell line was purchased from the ATCC and verified using a sequencing core. GL261 cells were obtained from the National Cancer Institute (NCI), and CT2A cells were a gift from Dr. Tom Seyfried (Boston College). LY2 cells were from Dr. Sana Karam, University of Colorado Anschutz Medical campus. Cells were grown at 37° C. in RPMI 1640 medium containing 10% heat-inactivated fetal bovine serum, 10 mM HEPES, 100 U/ml penicillin, and […] streptomycin (all from Corning Inc. New York, NY, USA). BALB/c mice were bred in-house. Mice of 8-10 weeks of age (females) were implanted with 0.5×10^6 cells into the mammary fat pad (4T1) or subcutaneously in the jaw region (LY2) and used for experiments 1 week later when tumors reached ˜200-300 mm^3. For brain tumors, C57BL/6 mice (6-8 weeks old) were implanted with a total 1×10^5 GL261 or CT-2A cells per animal using an established protocol. To determine the distribution of liposomes in tumors and organs, liposomes were injected with 50 μl of 10 mM total lipid intravenously. Blood was collected via periorbital plexus using heparin glass capillaries, and the plasma was separated by centrifugation at 500 g for 5 min. In some experiments, mice were preinjected before dissection with 50 μl of FITC-tomato lectin (1 mg/ml) and 50 μl Hoechst 33324 (2 mg/ml) to visualize the vasculature and the nuclei. Mice were sacrificed with carbon dioxide, followed by cardiac perfusion with PBS through the left ventricle.
Nikon Eclipse AR1HD inverted confocal microscope with 405 nm, 488 nm, 561 nm, and 640 nm excitation lasers and corresponding emission filters was used. For high magnification imaging, liposomes were diluted 1:200 in PBS, mixed with glycerol at 1:1 ratio and 2 μl were placed on slide. For liposomes in plasma, the samples were diluted 1:20 and mixed with glycerol. The preparations in glycerol were spread under a coverslip and imaged under Apo60 or Apo100 Oil objective at 2048×2048 resolution. For tumor imaging, tumors or whole brains were frozen on dry ice and sliced with a blade into 1-2 mm thick slices. The slices were placed on a glass slide and imaged using Plan Apo 10 objective. Channels' voltage and laser intensity were adjusted using the dual labeled liposomes placed on a slide and imaged under the same magnification. These parameters were calibrated before each imaging session using the batch of liposomes used in that experiment. For quantification, multiple random image areas from different slices of the tumor (both periphery and center) were acquired at 512×512 resolution. Images were quantified with Fiji using customized macros. Briefly, 8-bit gray image stacks were thresholded for fluorescence in the Cy3 and Cy5 channels and the percentages of binary (positive) areas were calculated using the “Measure” function. All the data were plotted with Prism version 8.3.0 (GraphPad, San Diego, CA).

The subject of the next series is LY2 head and neck cancer. The series is described as follows: Confocal microscopy of LY2 tumors after injection of dual-labeled liposomes. The format is in vivo, mice. To be noted: 24 h; DiI/Cy5-DSPE labeled EPC/DSPE-PEG2000 liposomes. How it is done:
(§1) 4T1 cell line was purchased from the ATCC and verified using a sequencing core. GL261 cells were obtained from the National Cancer Institute (NCI), and CT2A cells were a gift from Dr. Tom Seyfried (Boston College). LY2 cells were from Dr. Sana Karam, University of Colorado Anschutz Medical campus. Cells were grown at 37° C. in RPMI 1640 medium containing 10% heat-inactivated fetal bovine serum, 10 mM HEPES, 100 U/ml penicillin, and […] streptomycin (all from Corning Inc. New York, NY, USA). BALB/c mice were bred in-house. Mice of 8-10 weeks of age (females) were implanted with 0.5×10^6 cells into the mammary fat pad (4T1) or subcutaneously in the jaw region (LY2) and used for experiments 1 week later when tumors reached ˜200-300 mm^3. […]
(§2) Nikon Eclipse AR1HD inverted confocal microscope with 405 nm, 488 nm, 561 nm, and 640 nm excitation lasers and corresponding emission filters was used. […] For quantification, multiple random image areas from different slices of the tumor (both periphery and center) were acquired at 512×512 resolution. Images were quantified with Fiji using customized macros. Briefly, 8-bit gray image stacks were thresholded for fluorescence in the Cy3 and Cy5 channels and the percentages of binary (positive) areas were calculated using the “Measure” function. […]

Series [2] concerns syngeneic intracranial GL261 glioma. The series can be described thus: Confocal microscopy of brain slices of GL261 glioma mice after i.v. dual-labeled liposomes. It counts as in vivo. To be noted: 48 h post-injection, EPC/DSPE-PEG2000 liposomes, 0.2% DiI and 0.2% Cy5-DSPE. Here is the method:
as §1, §2

Series [3] in a line: Plasma fluorescence elimination profile after liposome injection. The format is in vivo, mice. To be noted: 24 h post-injection; DiI/Cy5-DSPE liposomes. How it is done:
as §1, with “mm^3. For brain tumors, C57BL/6 mice (6-8 weeks old) were implanted with a total 1×10^5 GL261 or CT-2A cells per animal using an established protocol.” for “mm^3.”
Tumors and livers were placed in a 24-well plate and scanned as described above. […] Mean fluorescence was determined from 8-bit TIFF images using Fiji software by drawing a region of interest around the tumors and using the “Measure” function to determine mean gray values. […] For plasma fluorescence profile, plasma collected at different time points was serially diluted, dotted on a nitrocellulose membrane, scanned as above, and the mean fluorescence of dots was plotted versus time with Prism.

A short description of series [4]: Ex vivo fluorescence imaging of excised tumors and livers. The format is in vivo, mice. Here is the method:
Tumors and livers were placed in a 24-well plate and scanned as described above. To match the intensity of the channels, the same liposomes used for injection were diluted (1:10), dotted on a 0.45 μm nitrocellulose membrane, and scanned together with the samples. Mean fluorescence was determined from 8-bit TIFF images using Fiji software by drawing a region of interest around the tumors and using the “Measure” function to determine mean gray values. Such measurement is independent of the organ cross-section area. The mean gray values of non-injected tumors were subtracted from the measurements. For plasma fluorescence profile, plasma collected at different time points was serially diluted, dotted on a nitrocellulose membrane, scanned as above, and the mean fluorescence of dots was plotted versus time with Prism.

The nature of series [5]: Lipid extraction of tumors and organs, dye biodistribution. It counts as in vivo, mice. To be noted: 48 h post-injection. How it is done:
For extraction using a modified Bligh-Dyer method, 50-100 mg tissue was homogenized as described above, 10 parts of chloroform/methanol (2:1) were added to the homogenate (considering that tissue weight is 1 part), and the samples were mixed at 1400 rpm for 2 h at room temperature on Eppendorf Thermomixer. The tubes were centrifuged at 500 g for 10 min. The organic phase (bottom, approximately 80% of the added amount) was carefully collected, dotted on a PVDF membrane and scanned for DiI and Cy5 fluorescence as described above. Different dilutions of liposomes (standard curve) were scanned together with the samples. The percentage of the injected DiI and Cy5 in the extract was calculated from the standard curve and divided by tissue weight. The fluorescence of control non-injected organs was subtracted from that of injected organs. For TLC analysis, the mobile phase consisted of chloroform: methanol (9:1) with 1% trifluoroacetic acid and the samples were run on TLC Silica Gel 60 F254 plates (EMD Millipore).

A short description of series [6]: Skin extravasation and accumulation of liposomal lipid dyes. It counts as in vivo, Mouse. Here is the method:
FIG. 40B: Liposomes were formulated with Cy3-DSPE, LR-DOPE or DiI. FIG. 40C: Mouse skin was excised 4 days after injection and the microscopic areas of accumulation and extravasation were counted. […] FIG. 40D-40F: circulation and skin accumulation of DiD and Cy5-DSPE liposomes (n=3 per group, 9 different skin areas pooled). FIG. 40G-40H: mixed DiI/Cy5-DSPE liposomes colocalize in skin blood vessels at 1 h, and colocalize in plasma (1000× magnification zoomed). Arrows in FIG. 40G point to DiI extravasation. […] Similar results were observed when mixed Cy3-DSPE/DiD liposomes were used (lower panel).

For the next series, the system named is MOLM13 leukemic cells. The series is described as follows: MTT cytotoxicity assay in MOLM13 leukemic cells. The format is cell-based. To be noted: Homo sapiens, MOLM-13, 48 h.
The next series has as its system human glioma cell lines. To be noted: cited from earlier work.

Regarding `CCCCCCCCCCCCCCCCCC(=O)OC[C@H](COP(=O)(O)OCCNC(=O)CCCCCN1/C(=C/C=C/C2=[N+](C)c3ccccc3C2(C)C)C(C)(C)c2ccccc21)OC(=O)CCCCCCCCCCCCCCCCC.O=C[O-]` [Cy3-DSPE], the “extravasation and migration area in tumor” value in series [1] (p-value<0.0001) is “mostly stayed in blood vessels”.

As for `CCCCCCCCCCCCCCCCCCN1C(=CC=CC=CC2=[N+](CCCCCCCCCCCCCCCCCC)c3ccccc3C2(C)C)C(C)(C)c2ccccc21.O=S(=O)([O-])c1ccc(Cl)cc1` [DiD], in [1] (p-value<0.0001), the “extravasation and migration area in tumor” value was “extravasated and migrated over a significantly larger area than Cy3-DSPE”.

`CCCCCCCCCCCCCCCCCCN1C(=CC=CC2=[N+](CCCCCCCCCCCCCCCCCC)c3ccccc3C2(C)C)C(C)(C)c2ccccc21.[O-][Cl+3]([O-])([O-])[O-]` [DiI]: the “fluorescence positive area in tumor images” value in series [1] (4 h, 24 h and 48 h post-injection, EPC/DSPE-PEG2000 DiI/Cy5-DSPE liposomes, p-value<0.0001) is given as “significantly larger area than Cy5-DSPE”. In addition, in series [1] (24 h, 150 nm HSPC/Chol/DSPE-PEG2000 liposomes (DOXIL formula), 0.2% DiI and Cy5-DSPE), the “extravasation and spreading in tumor” value was “more efficient extravasation and spreading”. Further, the “extravasation and distribution in tumor” value in series [1] (24 h post-injection, EPC/DSPE-PEG2000 liposomes, 0.2 mole % DiI and Cy5-DSPE, i.v.) was “efficiently extravasated and migrated throughout the tumor”. In the series with LY2 head and neck cancer, the extravasation in tumor entry is given as “much better extravasation”. Besides, the “accumulation and spreading in glioma” value in [2] is “accumulated and spread in tumors much more efficiently than Cy5-DSPE”. Also, the “dye cleared from the circulation” value in series [3] was “approximately 80%”. Besides, the “fluorescence in liver images over time” value in series [4] (livers, later time points versus 1 h) is on record as “increase”. The “fluorescence in tumor images over time” value in series [4] (tumors, 1 h, 24 h, 48 h post-injection) was “continued to increase at 24 h and 48 h”. For the same molecule, the “tissues with the highest dye amount” value in series [5] was “highest in the tumor and liver”. Moreover, the “dye amount in tumor and organ extracts over time” value in series [5] (tumors, livers, spleens, kidneys, 1 h, 24 h) was “increase in all organs except the kidney over 48 h”. The “extravasation and accumulation in skin cells” value in series [6] (mixed DiI/Cy5-DSPE liposomes, 4 days later) is “only DiI extravasated and accumulated in skin cells”. Further, the skin extravasation entry in series [6] (skin excised 4 days after injection, liposomes with Cy3-DSPE, LR-DOPE or DiI) was “more efficient extravasation than phospholipid dyes”.

Take `Nc1ccn([C@@H]2O[C@H](CO)[C@@H](O)[C@@H]2O)c(=O)n1` [cytarabine]: a half-maximal effect with MOLM13 leukemic cells (EC50) was put at 65 nM.

Consider `COc1cccc2c1C(=O)c1c(O)c3c(c(O)c1C2=O)C[C@@](O)(C(=O)CO)C[C@@H]3O[C@H]1C[C@H](N)[C@H](O)[C@H](C)O1` [doxorubicin], for which the “toxicity to glioma cells (IC50)” value in the series with human glioma cell lines is “nanomolar range”.

As for `CC(=O)O[C@H]1C(=O)[C@@]2(C)[C@H]([C@H](OC(=O)c3ccccc3)[C@]3(O)C[C@H](OC(=O)[C@H](O)[C@@H](NC(=O)c4ccccc4)c4ccccc4)C(C)=C1C3(C)C)[C@]1(OC(C)=O)CO[C@@H]1C[C@@H]2O` [paclitaxel], the “toxicity to glioma cells (IC50)” value in the series with human glioma cell lines is listed as “nanomolar range”.
